Measurements as given in US8586555B2, “Immunomodulatory compositions, formulations, and methods for use thereof” (Dynavax Technologies Corporation, priority 2001, dated 2013).

Tests used:
Type in all cases: cell-based
[1] = test system: human peripheral blood mononuclear cells (hPBMC); test: human PBMC assay, Example 4 (oligos and PLGA premixed 15 minutes); settings: for IFN-α Mean / IFN-γ Mean: mean of donors 28044, 28045
Procedure: (§1) Hexameric oligonucleotides were tested for immunomodulatory activity alone and complexed with lactic acid/glycolic acid copolymer microcarrier beads using a human peripheral blood mononuclear cells (hPBMC) assay. Peripheral blood was collected from healthy volunteers by venipuncture using heparinized syringes. Blood was layered onto a FICOLL® (Amersham Pharmacia Biotech) cushion and centrifuged. hPBMCs, located at the FICOLL® interface, were collected, then washed twice with cold phosphate buffered saline (PBS). The cells were resuspended and cultured in 48 well plates at 2×10^6 cells/mL at 37° C. in RPMI 1640 with 10% heat-inactivated human AB serum plus 50 units/mL penicillin, 50 μg/mL streptomycin, 300 μg/mL glutamine, 1 mM sodium pyruvate, and 1×MEM non-essential amino acids (NEAA).
(§2) Oligonucleotides were tested as single agents, or in combination with PLGA microspheres (unmodified or cationic). All oligonucleotides contained 100% phosphorothioate linkages and were tested at 20 μg/ml. The PLGA microcarriers were used at 250 μg/ml. When oligos were tested with PLGA microcarriers, the oligo and the microcarriers were added at the same time to the culture. The cells were cultured in the in the presence of test samples for 24 hours, then cell-free medium was collected from each well and assayed for IFN-γ and IFN-α concentration. Two different oligonucleotides were used as controls: a first oligonucleotide known to have immunostimulatory activity (a 22mer oligonucleotide containing an ISS (“ISS+,” 5′-[…]-3′(SEQ ID NO:2)) and a second oligonucleotide of similar sequence but lacking immunostimulatory activity (“ISS−,” 5′-[…]-3′ (SEQ ID NO:1)). SAC (PANSORBIN® CalBiochem, 1/5000 dilution) and a untreated culture were used as additional positive and negative controls, respectively. SAC contains Staph. aureus (Cowan I) cell material. All samples were assayed in duplicate.
(§3) IFN-γ and IFN-α were assayed using CYTOSCREEN™ ELISA kits from BioSource International, Inc., according to the manufacturer's instructions.
Additional hexameric and pentameric oligonucleotides were tested for immunomodulatory activity in the PBMC assay. Oligonucleotides 6-6 (5′-TCGAGA-3′), 6-8 (5′-GTCGAC-3′), 6-9 (5′-GTCGTT-3′), 6-2 (5′-TCGTTT-3′), 6-3 (5′-TTCGTT-3′), 6-4 (5′-TTTCGT-3′), 5-1 (5′-TCGTC-3′), and 5-2 (5′-TCGTT-3′) were tested alone or in combination with cationic PLGA as described in Example 3 except that the oligos and PLGA were premixed for 15 minutes room temperature before addition to the cultures. The test articles were assayed using PBMC isolated from donors 28044 and 28045.

[2] = test system: human peripheral blood mononuclear cells (hPBMC); test: human PBMC assay, Example 5 (96 well plates, premixed); settings: for IFN-α Mean / IFN-γ Mean: mean of donors 28051-28054
Procedure: as §1, §2, §3
(§4) The immunomodulatory activity of the oligonucleotides used in Examples 3 and 4 was confirmed with the human PBMC assay using PBMCs from an additional four donors (donors 28051-28054). Oligonucleotides were tested alone or in combination with cationic PLGA as described in Example 3, except that 96 well plates were used instead of 48 well plates and the oligonucleotides were premixed with the cationic microspheres at room temperature for 15 minutes before they were added to the culture, rather than being added simultaneously to the culture.

[3] = test system: human peripheral blood mononuclear cells (hPBMC); test: human PBMC assay, Example 7 (oligo 20 μg/ml, cPLGA 100 μg/ml); settings: for IFN-α Mean / IFN-γ Mean: mean of donors 28115-28118
Procedure: as §1, §2, §3, §4
Additional oligonucleotides, some incorporating modified bases, were tested for immunomodulatory activity in the human PBMC assay. Oligonucleotides were tested alone or in combination with cPLGA as described in Example 5. The oligonucleotides were premixed with the cationic PLGA microspheres for 15 minutes at room temperature at concentrations of 20 μg/ml and 100 μg/ml, respectively.

[4] = test system: human peripheral blood mononuclear cells (hPBMC); test: human PBMC assay, Example 6
Procedure: as §1, §2, §3, §4
Additional oligonucleotides were tested for immunomodulatory activity in the human PBMC assay. Oligonucleotides were tested alone or in combination with cPLGA as described in Example 5.
Additional oligonucleotides were tested using hPBMCs from volunteers 154-157 using the same assay. Results, which are shown in Table 7, confirm the activity of oligonucleotides fitting the formula 5′-X1TCGX2-3′, where the oligonucleotide is a 3-6mer, X1 is zero or one nucleotide and X2 is zero to three nucleotides.

[5] = delivered as IMO/MC complexes (cPLGA)

| Substance | IFN-α ([1]; donor 28044) | IFN-γ ([1]; donor 28044) | IFN-α ([1]; donor 28045) | IFN-γ ([1]; donor 28045) | IFN-α Mean [1] | IFN-γ Mean [1] | immunomodulatory activity ([2]; delivered alone) | immunomodulatory activity [2, 5] | IFN-α ([2]; donor 28051) | IFN-γ ([2]; donor 28051) | IFN-α ([2]; donor 28052) | IFN-γ ([2]; donor 28052) | IFN-α ([2]; donor 28053) | IFN-γ ([2]; donor 28053) | IFN-α ([2]; donor 28054) | IFN-γ ([2]; donor 28054) | IFN-α Mean [2] | IFN-γ Mean [2] | IFN-α ([3]; donor 28115) | IFN-γ ([3]; donor 28115) | also measured |
| --- | --- | --- | --- | --- | --- | --- | --- | --- | --- | --- | --- | --- | --- | --- | --- | --- | --- | --- | --- | --- | --- |
| 5′-TCGTC-3′ [Oligonucleotide 5-1] | 0 pg/mL | 6 pg/mL | 0 pg/mL | 7 pg/mL | 0 pg/mL | 6 pg/mL | inactive | highly active | 0 pg/mL | 1 pg/mL | 3 pg/mL | 0 pg/mL | 1 pg/mL | 1 pg/mL | 1 pg/mL | 0 pg/mL | 1 pg/mL | 1 pg/mL |  |  |  |
| 5′-TCGTT-3′ [Oligonucleotide 5-2] | 0 pg/mL | 4 pg/mL | 0 pg/mL | 0 pg/mL | 0 pg/mL | 2 pg/mL | inactive | highly active | 1 pg/mL | 1 pg/mL | 5 pg/mL | 0 pg/mL | 0 pg/mL | 0 pg/mL | 2 pg/mL | 1 pg/mL | 2 pg/mL | 0 pg/mL | 0 pg/mL | 8 pg/mL | immunomodulatory activity ([3]; combined with cPLGA): active in two of four donors; IFN-α ([3]; donor 28116): 0 pg/mL; IFN-γ ([3]; donor 28116): 4 pg/mL; IFN-α ([3]; donor 28117): 0 pg/mL; IFN-γ ([3]; donor 28117): 8 pg/mL; IFN-α ([3]; donor 28118): 0 pg/mL; IFN-γ ([3]; donor 28118): 0 pg/mL; IFN-α Mean [3]: 0 pg/mL; IFN-γ Mean [3]: 5 pg/mL |
| 5′-TCGTTT-3′ [Oligonucleotide 6-2] | 0 pg/mL | 30 pg/mL | 0 pg/mL | 0 pg/mL | 0 pg/mL | 15 pg/mL | inactive | highly active | 0 pg/mL | 1 pg/mL | 2 pg/mL | 0 pg/mL | 10 pg/mL | 3 pg/mL | 0 pg/mL | 1 pg/mL | 3 pg/mL | 1 pg/mL | 0 pg/mL | 3 pg/mL | immunomodulatory activity ([4]; delivered as oligonucleotide/MC complex (cPLGA)): highly active; IFN-α ([4]; donor 28075): 36 pg/mL; IFN-γ ([4]; donor 28075): 8 pg/mL; IFN-α ([4]; donor 28076): 6 pg/mL; IFN-γ ([4]; donor 28076): 18 pg/mL; IFN-α ([4]; donor 28077): 66 pg/mL; IFN-γ ([4]; donor 28077): 5 pg/mL; IFN-α ([4]; donor 28078): 101 pg/mL; IFN-γ ([4]; donor 28078): 14 pg/mL; IFN-α Mean ([4]; mean of donors 28075-28078): 53 pg/mL; IFN-γ Mean ([4]; mean of donors 28075-28078): 11 pg/mL; IFN-α ([3]; donor 28116): 0 pg/mL; IFN-γ ([3]; donor 28116): 0 pg/mL; IFN-α ([3]; donor 28117): 0 pg/mL; IFN-γ ([3]; donor 28117): 5 pg/mL; IFN-α ([3]; donor 28118): 0 pg/mL; IFN-γ ([3]; donor 28118): 0 pg/mL; IFN-α Mean [3]: 0 pg/mL; IFN-γ Mean [3]: 2 pg/mL |
| 5′-TTCGTT-3′ [Oligonucleotide 6-3] | 0 pg/mL | 6 pg/mL | 0 pg/mL | 0 pg/mL | 0 pg/mL | 3 pg/mL | inactive | highly active | 0 pg/mL | 1 pg/mL | 5 pg/mL | 0 pg/mL | 5 pg/mL | 5 pg/mL | 0 pg/mL | 0 pg/mL | 3 pg/mL | 2 pg/mL |  |  |  |
| 5′-TTTCGT-3′ [Oligonucleotide 6-4] | 0 pg/mL | 13 pg/mL | 0 pg/mL | 0 pg/mL | 0 pg/mL | 6 pg/mL |  | variable activity | 0 pg/mL | 3 pg/mL | 2 pg/mL | 0 pg/mL | 11 pg/mL | 2 pg/mL | 0 pg/mL | 0 pg/mL | 3 pg/mL | 1 pg/mL |  |  |  |
